According to patent publication US6617444B1, “Dinucleotide tetraphosphate crystals” (Yamasa Corporation, priority 1999, dated 2003):

Experiments:
[1] = Stability: acceleration test, sealed bottles stored at 60° C.; type: physicochemical; details: sealed bottle, 13 days at 60° C. (acceleration test)
Protocol: dCP4U.4Na crystals (decahydrate) and a freeze-dried product were individually placed in bottles, which were then sealed and stored for 13 days at 60° C. (acceleration test).

[2] = Hygroscopicity: standing at controlled temperature and relative humidity; type: physicochemical
Protocol: dCP4U.4Na crystals (decahydrate) having a water content of approximately 17.4% were allowed to stand for two days under the following conditions a), b) and c): a) 25° C. and a relative humidity of 57%; b) 25° C. and a relative humidity of 75%; c) 25° C. and a relative humidity of 93%. […] The crystals have proven to be stable and to have no hygroscopicity. In addition, the same crystals were allowed to stand for seven days under the following severe conditions d): d) 40° C. and a relative humidity of 75%.

[3] = two days, 25° C., relative humidity 75%
[4] = two days, 25° C., relative humidity 93%

| SMILES | decomposition on storage [1] | change on standing under severe conditions ([2]; seven days, 40° C., relative humidity 75%) | decomposition or change in weight on standing (hygroscopicity) ([2]; two days, 25° C., relative humidity 57%) | decomposition or change in weight / state on standing (hygroscopicity) [2, 3] | decomposition or change in weight / state on standing (hygroscopicity) [2, 4] | purity loss on storage [1] |
| --- | --- | --- | --- | --- | --- | --- |
| Nc1ccn([C@H]2CC(O)[C@@H](COP(=O)(O)OP(=O)(O)OP(=O)(O)OP(=O)(O)OC[C@H]3O[C@@H](n4ccc(=O)[nH]c4=O)C(O)C3O)O2)c(=O)n1 (stereo partly drawn) [dCP4U.4Na crystals (decahydrate), p^1-(2′-deoxycytidine 5′-)P^4-(uridine 5′-)tetraphosphate] | No decomposition | No change was observed | No decomposition or change in weight was observed | No decomposition or change in weight was observed | No decomposition or change in weight was observed | – |
| Nc1ccn([C@H]2CC(O)[C@@H](COP(=O)(O)OP(=O)(O)OP(=O)(O)OP(=O)(O)OC[C@H]3O[C@@H](n4ccc(=O)[nH]c4=O)C(O)C3O)O2)c(=O)n1 (stereo partly drawn) [freeze-dried product, p^1-(2′-deoxycytidine 5′-)P^4-(uridine 5′-)tetraphosphate, reference compound] | partially decomposed | – | – | assumed a mud-like state due to gradual increase in water content | assumed a mud-like state due to gradual increase in water content | approximately 2.2% |
